Reference: ChEMBL document CHEMBL1152194, “Substituent control of DNA binding modes in a series of chalcogenoxanthylium photosensitizers as determined by isothermal titration calorimetry and topoisomerase I DNA unwinding assay” (Bioorg Med Chem, 2008)
Blank lines part the entries; values can stand above or below the molecule they belong to.

Legend:
[1] = target: T1, DNA topoisomerase 1 (Homo sapiens) (UniProt P11387); assay: Inhibition of human DNA topoisomerase 1-induced unwinding activity using Escherichia coli pUC19 DNA assessed as bound compound per nucleotide pair at 24 uM
T1 sequence (whole entry): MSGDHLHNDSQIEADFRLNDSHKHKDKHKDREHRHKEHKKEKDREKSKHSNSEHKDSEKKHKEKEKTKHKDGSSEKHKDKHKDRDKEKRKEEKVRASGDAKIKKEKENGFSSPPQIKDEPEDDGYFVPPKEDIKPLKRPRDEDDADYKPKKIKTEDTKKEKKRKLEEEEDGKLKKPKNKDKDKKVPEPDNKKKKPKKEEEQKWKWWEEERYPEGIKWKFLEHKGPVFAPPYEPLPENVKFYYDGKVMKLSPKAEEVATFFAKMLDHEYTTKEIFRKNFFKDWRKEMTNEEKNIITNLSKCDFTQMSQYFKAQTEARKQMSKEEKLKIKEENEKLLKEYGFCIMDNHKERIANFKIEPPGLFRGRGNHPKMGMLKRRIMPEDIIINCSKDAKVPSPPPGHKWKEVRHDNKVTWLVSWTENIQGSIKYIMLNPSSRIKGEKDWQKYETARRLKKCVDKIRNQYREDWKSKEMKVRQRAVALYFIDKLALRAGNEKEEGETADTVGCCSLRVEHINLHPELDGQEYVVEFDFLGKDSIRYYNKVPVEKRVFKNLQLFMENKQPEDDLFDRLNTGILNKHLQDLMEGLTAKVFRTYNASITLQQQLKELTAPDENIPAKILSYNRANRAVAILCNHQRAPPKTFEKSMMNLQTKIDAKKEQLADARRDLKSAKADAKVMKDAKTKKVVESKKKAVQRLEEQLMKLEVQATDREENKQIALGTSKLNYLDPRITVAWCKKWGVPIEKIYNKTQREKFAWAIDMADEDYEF

DNA = assay: Binding affinity to ultrapure calf thymus DNA in MESOO buffer at pH 6.25 at 30 degC by isothermal titration calorimetry assay; type: nucleic-acid assay, Bos taurus
[2] = Selectivity for Kb of [poly(dAdT)]2 DNA to Kb of [poly(dCdG)]2 DNA
physchem = conditions: octanol/water

- Activity [1]: 0.9
SMILES: CCN(CC)C(=O)c1sccc1-c1c2ccc(=[N+](C)C)cc-2sc2cc(N(C)C)ccc12

SMILES: CN(C)c1ccc2c(-c3cccs3)c3ccc(=[N+](C)C)cc-3[te]c2c1.F[P-](F)(F)(F)(F)F
- Kd (DNA): 2.1 ×10⁶ /M

SMILES: CN(C)c1ccc2c(-c3ccccc3)c3ccc(=[N+](C)C)cc-3[se]c2c1
- Ratio pKb [2]: 3
- logP (physchem): 0.09

SMILES: CN(C)c1ccc2c(-c3cccs3)c3ccc(=[N+](C)C)cc-3[se]c2c1
- logP (physchem): -0.31
